Experimental data as given in PMC10675077, “Antimicrobial Properties of New Polyamines Conjugated with Oxygen-Containing Aromatic Functional Groups” (Molecules, 2023).
Converted amounts (≈) assume the structure as drawn. Where two headings read alike, the source gives them in different places.

Columns and labels:
[1] = system: Staphylococcus aureus BHI; assay: MIC, microdilution in culture medium, S. aureus; type: cell-based; conditions: Staphylococcus aureus, 20 h, read-out: MIC, Bacteria, S. aureus BHI
Text: (§1) The microorganisms used for the susceptibility tests were the bacteria Escherichia coli JM101 and Staphylococcus aureus BHI, and the yeast Saccharomyces cerevisiae strains BY4741 (MAT a his3Δ1 leu2Δ0 met15Δ0 ura3Δ0 (EUROSCARF)) carrying YEplac195 (from EUROSCARF) or YEPlac195-PDR5 (provided by Ayse Banu Demir, Izmir University of Economics, Turkey) plasmids.
(§2) Bacterial strains were usually maintained and grown in an LB medium (0.5% (w/v) yeast extract, 1% (w/v) bactotryptone, and 1% (w/v) NaCl) at 37 °C. For MIC (minimal inhibitory concentration) and MMC (minimal microbicidal concentration) assays, and for the determination of synergies, overnight growth was carried out in 2% (w/v) bactopeptone (BP), and then the cultures were diluted and incubated for several hours in 2% (w/v) BP for ensuring logarithmic growth. Yeast strains were grown in an SC-ura medium (0.17% (w/v) yeast nitrogen base without amino acids and ammonium sulphate, 0.2% (w/v) drop-out without uracil, 0.5% (w/v) (NH4)2SO4, and 2% (w/v) glucose) at 30 °C. Liquid cultures were incubated with shaking (200 rpm). Solid media also contained 2% (w/v) agar.
(§3) For the analysis of the antimicrobial activity, the strategies and indications of Cushnie et al. were considered. The standardised method of microdilution in a culture medium was followed to determine the MIC [55]. In bacterial strains, serial dilutions of the compounds to be tested and the control antibiotics were prepared in phosphate buffer (20 mM, pH 7.4, 0.5 mL) and were mixed with a suspension of bacterial cells in a logarithmic growth phase (in 1% BP, 0.5 mL). The final OD600 of the whole solutions were 0.004 and 0.008 for E. coli and S. aureus cultures, respectively. After 20 h of incubation at 37 °C with shaking, the MIC was determined as the lowest concentration of each compound in which no visible bacterial growth was observed.

Escherichia coli JM101 = assay: MIC, microdilution in culture medium, E. coli; type: cell-based; conditions: Escherichia coli, read-out: MIC, Bacteria, E. coli JM101
Text: as §1, §2, §3

[2] = system: Saccharomyces cerevisiae BY4741/YEplac195-PDR5; assay: microbe, parasite or virus in culture; type: cell-based; conditions: Saccharomyces cerevisiae, 24 h, read-out: MIC, Yeast, BY4741/ PDR5
Text: as §1, §2
(§4) The determination of the MIC for yeast strains was carried out following a similar procedure to that of the polyamines and antifungal reference agents: Serial dilutions of each one in phosphate buffer (20 mM, pH 7.4, 0.5 mL) were prepared and mixed with a suspension of yeast cells (OD600 0.04 in SC-ura 2X (VWR, Atlanta, GA, USA), 0.5 mL). […] Experiments were carried out at least three times in all cases.

[3] = system: Saccharomyces cerevisiae BY4741/YEplac195; assay: microbe, parasite or virus in culture; type: cell-based; conditions: Saccharomyces cerevisiae, 24 h, read-out: MIC, Yeast, BY4741/ YEplac195
Text: as §1, §2, §4

E. coli JM101 = assay: Minimal bactericidal concentration, E. coli; type: cell-based, Escherichia coli; conditions: Escherichia coli, JM101; overnight incubation, plating on LB; bacteriostatic if growth at 4 times the MIC
Experimental: (§5) Once the MIC was known, the samples were prepared as described in the previous section with polyamine concentrations corresponding to the MIC and half, double, and four times its value. After overnight incubation with the microorganisms, 30 μL of a ten-fold dilution of each one was spread in LB (in the case of bacterial strains) or SC-ura (for yeast strains) plates. They were incubated for 20 h at 37 °C (bacteria) or 48 h at 30 °C (yeasts), and the level of growth was determined. […] Experiments were carried out at least three times.

S. aureus BHI = assay: Minimal bactericidal concentration, S. aureus; type: cell-based, Staphylococcus aureus; conditions: Staphylococcus aureus; overnight incubation, plating on LB
Experimental: as §5

[4] = system: Yeast (S. cerevisiae strains); assay: MIC, yeast (strain not specified); type: cell-based, Saccharomyces cerevisiae; conditions: Saccharomyces cerevisiae; yeast strain not specified (Tables 5 and 10); read-out: MIC Yeast
Experimental: as §4

[5] = Potentiometric titrations in water (protonation constants); type: physicochemical; conditions: for log β (cumulative protonation constant): calculated as log β = ∑j log KHjL; for n, average number of positive charges at pH 7.4: calculated from protonation constants
Experimental: The potentiometric titrations were carried out at 298.1 ± 0.1 K using NaCl 0.15 M as a supporting electrolyte. The experimental procedure (burette, potentiometer, cell, stirrer, microcomputer, etc.) has been fully described elsewhere. The acquisition of the EMF data was performed with the computer program PASAT [50]. The reference electrode was a Ag/AgCl electrode in a saturated KCl solution. The glass electrode was calibrated as a hydrogen-ion concentration probe via the titration of previously standardised amounts of HCl with CO2-free NaOH solutions and the equivalent point determined using the Gran method, which provides the standard potential, E^θ′, and the ionic product of water (pKw = 13.73(1)).
The computer program […] was used to calculate the protonation constants. The pH range investigated was 2.5–11.0, and the concentration of the ligands ranged from 5 × 10^−4 to 5 × 10^−[…]. The different titration curves for each system (at least two) were treated either as a single set or as separated curves without significant variations in the values of the stability constants. Finally, the sets of data were merged and treated simultaneously to give the final stability constants.

[6] = Cytotoxicity, flow cytometry viability assay with propidium iodide; type: cell-based, human; conditions: human, Jurkat cells (human lymphocytic leukaemia, ATCC TIB-152), 24 h treatment, average of three experiments, read-out: IC50, cytotoxicity on the human Jurkat cell line
Experimental: The cytotoxicity of the compounds was assessed via flow cytometry with a viability assay using propidium iodide (PI), a DNA-binding fluorescent probe not permeant to live cells, which is commonly used to detect dead cells in a population. The human lymphocytic leukaemia Jurkat cell line (ATCC TIB-152) was obtained from the American Type Cell Culture (Sigma-Aldrich) and grown in suspension in an RPMI 1640 medium (Thermo Fisher Scientific, Waltham, MA, USA) supplemented with L-glutamine, antibiotics, and 10% heat-inactivated foetal calf serum (FCS, Thermo Fisher Scientific, Waltham, MA, USA). For the viability assay, cells were seeded in plastic 96-well plates at […] in an RPMI 1640 medium supplemented with 5% FCS. The cells were treated for 24 h with a range of concentrations of the test compounds or with the same volume of phosphate buffer (PBS) in control wells. After incubation, cell suspensions were washed, resuspended in 400 μL fresh medium, and incubated for 5 min at room temperature in the dark with 3.75 μM PI (Sigma-Aldrich). Cell viability was determined via flow cytometry using a Gallios flow cytometer (Beckman Coulter). PI fluorescence was excited with an argon-ion laser at 488 nm and collected through a 620/630 nm band-pass emission. Cellular events were discriminated from debris using forward scatter (FS) and side scatter (SS) signals. Cell aggregates were excluded from analysis based on FS-integral and FS-peak. The gates applied for population discrimination were set manually based on control samples. For each sample, 10,000 events were collected. For further analysis, the cytometric data were exported to Kaluza 2.1 software (Beckman Coulter, Brea, CA, USA). Dead cells were identified and quantified as PI-positive events. The cytotoxic potency of test compounds was quantified using their IC50 values, i.e., the compound concentration at which cell viability is inhibited by 50%, as calculated via curve fitting and determined with the correlation coefficient (R2) using GraphPad Prism 9.0 software. Experiments were carried out in triplicate.

[7] = 37 °C, average of at least three experiments
[8] = JM101, 20 h, 37 °C, average of at least three experiments
[9] = 30 °C, average of at least three experiments
[10] = 298 K, 0.15 mol/dm^3 NaCl, error in last figure in parentheses

Structure (SMILES): O=C(O)c1cn(C2CC2)c2cc(N3CCNCC3)c(F)cc2c1=O [Ciprofloxacin, reference compound]
- MIC [1, 7]: 0.1 µg/mL
- MIC (Escherichia coli JM101; [8]): 0.04 µg/mL

Structure (SMILES): NCCCNCCN(CCNCCCN)CCNCCCN [Compound 4b]
- MIC [1, 7]: 250 µg/mL
- MIC [2]: > 400 µg/mL
- MIC [3, 9]: > 400 µg/mL
- MIC (Escherichia coli JM101; [8]): 400 µg/mL

Structure (SMILES): C[C@@H]1C[C@@H]([C@H](O)CC2CC(=O)NC(=O)C2)C(=O)[C@@H](C)C1 [Cycloheximide, reference compound]
- MIC [2]: 0.5 µg/mL
- MIC [3]: 0.5 µg/mL

Structure (SMILES): c1ccc2c(c1)OCO2 [1,3-Benzodioxole, reference compound]
- MIC [1]: > 500 µg/mL
- MIC [2]: > 500 µg/mL
- MIC [3]: > 500 µg/mL
- MIC (Escherichia coli JM101; JM101, 20 h): > 500 µg/mL

Structure (SMILES): c1cc2c(cc1CNCCCNCCCCNCCCNCc1ccc3c(c1)OCO3)OCO2 [Compound 2a, N^1,N^1′-(butane-1,4-diyl)bis(N^3-(benzo[d][1,3]dioxol-5-ylmethyl)propane-1,3-diamine)]
- MIC [1, 7]: 50 µg/mL
- MBC (E. coli JM101): 20 µg/mL (≈ 42.5 µM)
- MIC [2]: 250 µg/mL
- MIC [3, 9]: 250 µg/mL
- MBC (S. aureus BHI): 100 µg/mL (≈ 212 µM)
- MIC [4]: 250 µg/mL (≈ 531 µM)
- Stepwise protonation constant (log K), H2L + H ⇄ H3L [5, 10]: 8.245 (7)
- Stepwise protonation constant (log K), H3L + H ⇄ H4L [5, 10]: 7.41 (1)
- Stepwise protonation constant (log K), L + H ⇄ HL [5, 10]: 10.81 (3)
- Stepwise protonation constant (log K), LH + H ⇄ H2L [5, 10]: 9.481 (8)
- log β (cumulative protonation constant) ([5]; 298 K, 0.15 mol/dm^3 NaCl): 35.94
- n, average number of positive charges at pH 7.4 [5]: 3.4
- MIC (Escherichia coli JM101; [8]): 10 µg/mL
- IC50 at 24 h [6]: 8.8 µg/mL (≈ 18.7 µM)

Structure (SMILES): c1cc2c(cc1CNCCCCNCCCNCc1ccc3c(c1)OCO3)OCO2 [Compound 1a, N^1-(benzo[d][1,3]dioxol-5-ylmethyl)-N^4-(3-((benzo[d][1,3]dioxol-5-ylmethyl)amino)propyl)butane-1,4-diamine]
- MIC [1, 7]: 150 µg/mL
- MBC (E. coli JM101): 100 µg/mL (≈ 242 µM)
- MIC [2]: > 400 µg/mL
- MIC [3, 9]: > 400 µg/mL
- MIC [4]: > 400 µg/mL
- Stepwise protonation constant (log K), H2L + H ⇄ H3L [5, 10]: 7.699 (2)
- Stepwise protonation constant (log K), L + H ⇄ HL [5, 10]: 10.433 (2)
- Stepwise protonation constant (log K), LH + H ⇄ H2L [5, 10]: 8.964 (2)
- log β (cumulative protonation constant) ([5]; 298 K, 0.15 mol/dm^3 NaCl): 27.09
- n, average number of positive charges at pH 7.4 [5]: 2.7
- MIC (Escherichia coli JM101; [8]): 50 µg/mL
- IC50 at 24 h [6]: 11.4 µg/mL (≈ 27.6 µM)

Structure (SMILES): NCCN(CCN)CCN [Compound 3b, reference compound]
- MIC [1, 7]: 400 µg/mL
- MIC [2]: > 400 µg/mL
- MIC [3, 9]: > 400 µg/mL
- MIC (Escherichia coli JM101; [8]): 250 µg/mL

Structure (SMILES): CNC(C)C1CCC(N)C(OC2C(N)CC(N)C(OC3OCC(C)(O)C(NC)C3O)C2O)O1 (stereo not shown) [Gentamicin, reference compound]
- MIC [1, 7]: 0.04 µg/mL
- MIC (Escherichia coli JM101; [8]): 0.02 µg/mL

Structure (SMILES): c1cc2c(cc1CNCCN(CCNCc1ccc3c(c1)OCO3)CCNCc1ccc3c(c1)OCO3)OCO2 [Compound 3a, N^1-(benzo[d][1,3]dioxol-5-ylmethyl)-N^2,N^2-bis(2-((benzo[d][1,3]dioxol-5-ylmethyl)amino)ethyl)ethane-1,2-diamine]
- MIC [1, 7]: 15 µg/mL
- MBC (E. coli JM101): 50 µg/mL (≈ 91.1 µM)
- MIC [2]: > 400 µg/mL
- MIC [3, 9]: > 400 µg/mL
- MBC (S. aureus BHI): 30 µg/mL (≈ 54.7 µM)
- MIC [4]: > 400 µg/mL
- Stepwise protonation constant (log K), H2L + H ⇄ H3L [5, 10]: 6.93 (3)
- Stepwise protonation constant (log K), L + H ⇄ HL [5, 10]: 9.12 (2)
- Stepwise protonation constant (log K), LH + H ⇄ H2L [5, 10]: 8.35 (3)
- n, average number of positive charges at pH 7.4 [5]: 2.1
- MIC (Escherichia coli JM101; [8]): 25 µg/mL
- IC50 at 24 h [6]: 1.86 µg/mL (≈ 3.39 µM)

Structure (SMILES): NCCCCNCCCN [Compound 1b, spermidine, reference compound]
- MIC [1, 7]: > 400 µg/mL
- MIC [2]: > 400 µg/mL
- MIC [3, 9]: > 400 µg/mL
- MIC (Escherichia coli JM101; [8]): 400 µg/mL

Structure (SMILES): NCCCNCCCCNCCCN [Compound 2b, spermine, reference compound]
- MIC [1, 7]: 400 µg/mL
- MIC [2]: > 400 µg/mL
- MIC [3]: > 400 µg/mL
- MIC (Escherichia coli JM101; [8]): 100 µg/mL
